# Assay results: ChEMBL document CHEMBL1131511, “Potent HIV protease inhibitors incorporating high-affinity P2-ligands and (R)-(hydroxyethylamino)sulfonamide isostere” (Bioorg Med Chem Lett, 1998)
# Tests used:
# [1] = target: Human immunodeficiency virus type 1 protease (Human immunodeficiency virus 1, UniProt Q72874); assay: Inhibitory activity against HIV-1 protease
# MT4 = assay: Compound was tested for the inhibition of HIV-1 in MT-4 human T-lymphoid cells infected with IIIB isolate; type: functional; details: read-out: ID50 (the source's name)
Structure (SMILES),Ki [1] [nM],IC50 (MT4) [nM]
CC(C)CN(C[C@@H](O)[C@H](Cc1ccccc1)NC(=O)O[C@H]1CCOC1)S(=O)(=O)c1ccc(N)cc1,1.6,15
CC(C)CN(C[C@@H](O)[C@H](Cc1ccccc1)NC(=O)O[C@H]1CO[C@H]2OCC[C@H]21)S(=O)(=O)c1ccc(N)cc1,–,4.5
Cc1ccc(S(=O)(=O)N(CC(C)C)C[C@@H](O)[C@H](Cc2ccccc2)NC(=O)O[C@H]2CO[C@H]3OCC[C@H]32)cc1,1.2,3.5
COc1ccc(S(=O)(=O)N(CC(C)C)C[C@@H](O)[C@H](Cc2ccccc2)NC(=O)O[C@H]2CCOC2)cc1,1.5,12
COc1ccc(S(=O)(=O)N(CC(C)C)C[C@@H](O)[C@H](Cc2ccccc2)NC(=O)O[C@H]2CCS(=O)(=O)C2)cc1,1.2,19
COc1ccc(S(=O)(=O)N(CC(C)C)C[C@@H](O)[C@H](Cc2ccccc2)NC(=O)O[C@H]2CCSC2)cc1,2.5,47
COc1ccc(S(=O)(=O)N(CC(C)C)C[C@@H](O)[C@H](Cc2ccccc2)NC(=O)O[C@@H]2CCS(=O)(=O)[C@@H]2C(C)C)cc1,1.4,18
CC(C)CN(C[C@@H](O)[C@H](Cc1ccccc1)NC(=O)O[C@@H]1CCS(=O)(=O)[C@@H]1C(C)C)S(=O)(=O)c1ccc(N)cc1,1.5,40
COc1ccc(S(=O)(=O)N(CC(C)C)C[C@@H](O)[C@H](Cc2ccccc2)NC(=O)O[C@@H]2CO[C@@H]3OCCC[C@@H]32)cc1,2.2,4.5
COc1ccc(S(=O)(=O)N(CC(C)C)C[C@@H](O)[C@H](Cc2ccccc2)NC(=O)O[C@H]2CO[C@H]3OCC[C@H]32)cc1,1.1,1.4
